# According to the supplement of paper PMC10307832:
# Key:
# Test in all cases: relative viability (nuclei count vs DMSO), 5 days (fraction); higher = more cells survive
# [1] = compound: C1COCCN1C2=NC(=NC3=C2OC4=C3C=CC=N4)C5=CC(=CC=C5)NC(=O)C6=CN=C(C=C6)N + Cc1nc(NC(=O)N2CCC[C@H]2C(N)=O)sc1-c1ccnc(C(C)(C)C(F)(F)F)c1 [Alpelisib] (partner 2 µM)
# Procedure, shortened: (§1)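 After 5 days of treatment, lung cancer cells in 1536-well plates were fixed and stained in a single step (final 0.05% Triton X-100, 1% formaldehyde, 1 ug/ml Hoechst) and their nuclei counted on 4× images. Treatment had been applied by pin tool the day after seeding as one drug alone or as a fixed anchor-drug dose with five library-drug doses (not always all listed) in √10 steps. Relative viability is the nuclei count of treated wells divided by that of vehicle wells, and values are medians of duplicate plates.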
# [2] = compound: C1COCCN1C2=NC(=NC3=C2OC4=C3C=CC=N4)C5=CC(=CC=C5)NC(=O)C6=CN=C(C=C6)N + Cc1nc(Nc2ncc(C(=O)Nc3c(C)cccc3Cl)s2)cc(N2CCN(CCO)CC2)n1 [Dasatinib] (partner 0.075 µM)
# Procedure, shortened: as §1
# SGI-1776 + OSI-027 = compound: CN1CCC(CNc2ccc3ncc(-c4cccc(OC(F)(F)F)c4)n3n2)CC1 [SGI-1776] + COc1cccc2cc(-c3nc([C@H]4CC[C@H](C(=O)O)CC4)n4ncnc(N)c34)[nH]c12 [OSI-027] (partner 0.5 µM)
# Procedure, shortened: as §1
# SGI-1776 + Pemetrexed = compound: CN1CCC(CNc2ccc3ncc(-c4cccc(OC(F)(F)F)c4)n3n2)CC1 [SGI-1776] + Nc1nc2[nH]cc(CCc3ccc(C(=O)N[C@@H](CCC(=O)O)C(=O)O)cc3)c2c(=O)[nH]1 [Pemetrexed] (partner 0.2 µM)
# Procedure, shortened: as §1
Cell Line,relative viability ([1]; first compound 0.02 µM),relative viability ([1]; first compound 0.06325 µM),relative viability ([1]; first compound 0.2 µM),relative viability ([1]; first compound 0.6325 µM),relative viability ([1]; first compound 2 µM),relative viability ([2]; first compound 0.02 µM),relative viability ([2]; first compound 0.06325 µM),relative viability ([2]; first compound 0.2 µM),relative viability ([2]; first compound 0.6325 µM),relative viability ([2]; first compound 2 µM),relative viability (SGI-1776 + OSI-027; first compound 0.08 µM),relative viability (SGI-1776 + OSI-027; first compound 0.8 µM),relative viability (SGI-1776 + OSI-027; first compound 2.53 µM),relative viability (SGI-1776 + OSI-027; first compound 8 µM),relative viability (SGI-1776 + Pemetrexed; first compound 0.08 µM),relative viability (SGI-1776 + Pemetrexed; first compound 0.8 µM),relative viability (SGI-1776 + Pemetrexed; first compound 2.53 µM),relative viability (SGI-1776 + Pemetrexed; first compound 8 µM)
SW 1573,0.659,0.912,0.734,0.699,0.576,0.401,0.565,0.458,0.378,0.247,0.673,0.715,0.631,0.391,0.896,0.799,0.77,0.671
LU99A,0.608,0.46,0.41,0.379,0.284,0.538,0.533,0.37,0.347,0.182,0.294,0.286,0.303,0.262,0.176,0.218,0.178,0.189
NCI-H1299,1.1,1.11,1.09,1.06,0.857,–,–,–,–,–,–,–,–,–,–,–,–,–
NCI-H1355,0.833,0.933,0.858,0.747,0.759,0.755,0.79,0.71,0.659,0.5,0.46,0.486,0.402,0.305,1.09,1.07,1.01,1.03
HARA,0.927,0.946,0.922,0.743,0.436,0.32,0.265,0.216,0.23,0.221,0.681,0.638,0.64,0.412,0.191,0.231,0.259,0.259
LXF-289,1.12,1.09,1.02,1,0.785,0.228,0.249,0.219,0.17,0.175,0.794,0.843,0.764,0.707,0.875,1,0.808,0.9
201T,1.03,1.03,0.926,0.96,0.966,0.55,0.558,0.606,0.57,0.579,0.823,0.703,0.708,0.6,0.325,0.339,0.348,0.301
HCC-827,0.984,0.92,0.958,0.961,0.815,0.282,0.294,0.414,0.233,0.308,0.804,0.843,0.793,0.602,0.393,0.268,0.24,0.226
NCI-H1703,0.282,0.315,0.288,0.289,0.201,–,–,–,–,–,–,–,–,–,–,–,–,–
